Residues, ends and D or L forms follow the SMILES beside them. *: point of attachment. C20 diacid = O=C(O)CCCCCCCCCCCCCCCCCCC(=O)*; C16 diacid = O=C(O)CCCCCCCCCCCCCCC(=O)*; Palmitoyl = CCCCCCCCCCCCCCCC(=O)* Bounds are passed on as bounds.

Consider four molecules from US20230416330A1, “Optimized GIP Peptide Analogues” (Antag Therapeutics ApS, priority 2019, published 2023).

A short description of data set [1]: Physical stability: fibril formation in Thioflavin T (ThT) assay with agitation. The class given is physicochemical. The following applies: 1 mg/ml, TFA, Phosphate (7.4); 25° C., agitation. The procedure: Continuous measurement of the fluorescence emission at 486 nm can be used as a measure of fibrillation behavior of peptides and proteins. The time until onset of fibrillation or fibrillation lag time is estimated here by defining the lag time (Tlag) as the point in time where the signal relative to the pre-transition baseline has reached 10% of the post-transition baseline.
50 mM sodium phosphate buffer for dissolving some samples was prepared in ultrapure water (Milli-Q® Reference A+ System, Merck) with a resistivity of 18.2 MΩ·cm. The buffer was adjusted to pH 7.4 and filtered.
The ultrapure water (MilliQ) for dissolving some samples was adjusted to pH 7.4 with NaOH and filtered prior to sample preparation.
(§1) Peptides were either dissolved in sodium phosphate buffer (50 mM, pH 7.4, filtered) or dissolved in ultrapure (MilliQ) water (adjusted to pH 7.4 with NaOH, filtered) (see Table 3). All peptide samples were prepared to a concentration of 1, 5, 7.5 or 15 mg/ml. All samples, with the exception of reference peptides GIP(3-30), AT158, and AT482 dissolved readily and produced clear and colorless solutions with gentle mixing. Peptide samples were subsequently filtered through 0.22 μm nylon filters (Q-Max® RR syringe filter, 13 mm, Frisenette, DK) to produce particle-free solutions. All samples were added to a 96-well plate reader for the ThT assay at t=0.
For each sample, […] ThT (1 mM) was added to 1.2 mL peptide solution. From this sample mixture, an amount of 200 uL/well was pipetted into four or five wells (n=4 or 5). Blank samples (buffer+ThT) were also included. One 3 mm silica bead was added to each well containing samples and the plate was subjected to orbital rotation at 300 rpm to agitate and stress the samples. The temperature was kept at 25° C. throughout the measurement.

Data set [2] in a line: Solubility by visual inspection of peptide solutions. The format is physicochemical. The following applies: 1 mg/ml, TFA, Phosphate (7.4). The procedure: as §1
Clear visual appearance may be taken as an indicator of the immediate solubility of the peptide. […] Thus, A13Aib and/or N24E substitutions appear to increase solubility.

Consider `CCCCCCCCCCCCCCCC(=O)NCCCC[C@H](NC(=O)[C@@H](NC(=O)[C@H](CCCCN)NC(=O)[C@H](CC(=O)O)NC(=O)[C@H](CCSC)NC(=O)[C@H](C)NC(=O)[C@@H](NC(=O)[C@H](CO)NC(=O)[C@H](Cc1ccc(O)cc1)NC(=O)[C@H](CC(=O)O)NC(=O)[C@H](CO)NC(=O)[C@@H](NC(=O)[C@H](Cc1ccccc1)NC(=O)[C@@H](NC(=O)CNC(=O)[C@@H](N)CCC(=O)O)[C@@H](C)O)[C@@H](C)CC)[C@@H](C)CC)[C@@H](C)CC)C(=O)N[C@@H](CCC(N)=O)C(=O)N[C@@H](CCC(N)=O)C(=O)N[C@@H](CC(=O)O)C(=O)N[C@@H](Cc1ccccc1)C(=O)N[C@H](C(=O)N[C@@H](CCC(=O)O)C(=O)N[C@@H](Cc1c[nH]c2ccccc12)C(=O)N[C@@H](CC(C)C)C(=O)N[C@@H](CC(C)C)C(=O)N[C@@H](C)C(=O)N[C@@H](CCC(N)=O)C(=O)N[C@@H](CCCCN)C(=O)N1CCC[C@H]1C(=O)N[C@@H](CO)C(=O)N[C@@H](CO)C(=O)NCC(=O)N[C@@H](C)C(=O)N1CCC[C@H]1C(=O)N1CCC[C@H]1C(=O)N1CCC[C@H]1C(=O)N[C@@H](CO)C(=O)O)C(C)C` [AT751] (H-EGTFISDYSIAMDKIK(Palmitoyl)QQDFVEWLLAQKPSSGAPPPS-OH; N-terminus assumed), for which, in data set [1], the “Avr lag time” value was under 24 h. Moreover, the Visual appearance entry in data set [2] is listed as “Clear”.
In the case of `CC[C@H](C)[C@H](NC(=O)[C@H](CO)NC(=O)[C@H](Cc1ccc(O)cc1)NC(=O)[C@H](CC(=O)O)NC(=O)[C@H](CO)NC(=O)[C@@H](NC(=O)[C@H](Cc1ccccc1)NC(=O)[C@@H](NC(=O)CNC(=O)[C@@H](N)CCC(=O)O)[C@@H](C)O)[C@@H](C)CC)C(=O)N[C@@H](C)C(=O)N[C@@H](CCSC)C(=O)N[C@@H](CC(=O)O)C(=O)N[C@@H](CCCCN)C(=O)N[C@@H](CCCCNC(=O)CCCCCCCCCCCCCCC(=O)O)C(=O)N[C@@H](Cc1c[nH]cn1)C(=O)N[C@@H](CCC(N)=O)C(=O)N[C@@H](CCC(N)=O)C(=O)N[C@@H](CC(=O)O)C(=O)N[C@@H](Cc1ccccc1)C(=O)N[C@H](C(=O)N[C@@H](CCC(=O)O)C(=O)N[C@@H](Cc1c[nH]c2ccccc12)C(=O)N[C@@H](CC(C)C)C(=O)N[C@@H](CC(C)C)C(=O)N[C@@H](C)C(=O)N[C@@H](CCC(N)=O)C(=O)N[C@@H](CCCCN)C(=O)N1CCC[C@H]1C(=O)N[C@@H](CO)C(=O)N[C@@H](CO)C(=O)NCC(=O)N[C@@H](C)C(=O)N1CCC[C@H]1C(=O)N1CCC[C@H]1C(=O)N1CCC[C@H]1C(=O)N[C@@H](CO)C(=O)O)C(C)C` [AT742] (H-EGTFISDYSIAMDKK(C16 diacid)HQQDFVEWLLAQKPSSGAPPPS-OH; N-terminus assumed), in data set [1], the “Avr lag time (h)” value is recorded as “fnd (Fnd = fibrils not detected within experiment time (96 hours) with agitation.)”. Further, the Visual appearance entry in data set [2] was “Clear”.
Turning to `CC[C@H](C)[C@H](NC(=O)[C@H](CO)NC(=O)[C@H](Cc1ccc(O)cc1)NC(=O)[C@H](CC(=O)O)NC(=O)[C@H](CO)NC(=O)[C@@H](NC(=O)[C@H](Cc1ccccc1)NC(=O)[C@@H](NC(=O)CNC(=O)[C@@H](N)CCC(=O)O)[C@@H](C)O)[C@@H](C)CC)C(=O)N[C@@H](C)C(=O)N[C@@H](CCSC)C(=O)N[C@@H](CC(=O)O)C(=O)N[C@@H](CCCCN)C(=O)N[C@H](C(=O)N[C@@H](CCCCNC(=O)CCCCCCCCCCCCCCCCCCC(=O)O)C(=O)N[C@@H](CCC(N)=O)C(=O)N[C@@H](CCC(N)=O)C(=O)N[C@@H](CC(=O)O)C(=O)N[C@@H](Cc1ccccc1)C(=O)N[C@H](C(=O)N[C@@H](CCC(=O)O)C(=O)N[C@@H](Cc1c[nH]c2ccccc12)C(=O)N[C@@H](CC(C)C)C(=O)N[C@@H](CC(C)C)C(=O)N[C@@H](C)C(=O)N[C@@H](CCC(N)=O)C(=O)N[C@@H](CCCCN)C(=O)N1CCC[C@H]1C(=O)N[C@@H](CO)C(=O)N[C@@H](CO)C(=O)NCC(=O)N[C@@H](C)C(=O)N1CCC[C@H]1C(=O)N1CCC[C@H]1C(=O)N1CCC[C@H]1C(=O)N[C@@H](CO)C(=O)O)C(C)C)[C@@H](C)CC` [AT750] (H-EGTFISDYSIAMDKIK(C20 diacid)QQDFVEWLLAQKPSSGAPPPS-OH; N-terminus assumed), the “Avr lag time (h)” value in data set [1] is reported as “fnd (Fnd = fibrils not detected within experiment time (96 hours) with agitation.)”. Further, the Visual appearance result in data set [2] is listed as “Clear”.
Consider `CC[C@H](C)[C@H](NC(=O)[C@H](CO)NC(=O)[C@H](Cc1ccc(O)cc1)NC(=O)[C@H](CC(=O)O)NC(=O)[C@H](CO)NC(=O)[C@@H](NC(=O)[C@H](Cc1ccccc1)NC(=O)[C@@H](NC(=O)CNC(=O)[C@@H](N)CCC(=O)O)[C@@H](C)O)[C@@H](C)CC)C(=O)N[C@@H](C)C(=O)N[C@@H](CCSC)C(=O)N[C@@H](CC(=O)O)C(=O)N[C@@H](CCCCN)C(=O)N[C@H](C(=O)N[C@@H](CCCCNC(=O)CCCCCCCCCCCCCCC(=O)O)C(=O)N[C@@H](CCC(N)=O)C(=O)N[C@@H](CCC(N)=O)C(=O)N[C@@H](CC(=O)O)C(=O)N[C@@H](Cc1ccccc1)C(=O)N[C@H](C(=O)N[C@@H](CC(N)=O)C(=O)N[C@@H](Cc1c[nH]c2ccccc12)C(=O)N[C@@H](CC(C)C)C(=O)N[C@@H](CC(C)C)C(=O)N[C@@H](C)C(=O)N[C@@H](CCC(N)=O)C(=O)N[C@@H](CCCCN)C(=O)O)C(C)C)[C@@H](C)CC` [AT719] (H-EGTFISDYSIAMDKIK(C16 diacid)QQDFVNWLLAQK-OH; N-terminus assumed), for which the “Avr lag time” value in data set [1] was under 8 h. Also, the Visual appearance entry in data set [2] is “Clear”.
